Laboratory results: ChEMBL document CHEMBL4428134, “Discovery of AZD2716: A Novel Secreted Phospholipase A2 (sPLA2) Inhibitor for the Treatment of Coronary Artery Disease” (ACS Med Chem Lett, 2016)
In brackets after ≈: the same amount, converted by molar mass. Activity calls are given as the source filed them. The rule behind the calls is not given here.

Legend:
[1] = molecular target: T1, Group 10 secretory phospholipase A2 (Homo sapiens, UniProt O15496); assay: Inhibition of recombinant sPLA2-10 (unknown origin) using 1-palmitoyl-2-oleoyl-sn-glycero-3-phosphocholine as substrate preincubated for 10 mins followed by substrate addition measured after 60 mins by colorimetric method
T1 sequence (O15496 whole entry): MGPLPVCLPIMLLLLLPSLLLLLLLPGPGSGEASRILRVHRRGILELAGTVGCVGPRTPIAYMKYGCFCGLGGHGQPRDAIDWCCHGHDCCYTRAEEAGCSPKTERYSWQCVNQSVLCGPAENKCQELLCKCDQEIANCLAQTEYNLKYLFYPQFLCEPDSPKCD

[2] = molecular target: T2, Secretory phospholipase A2 (Homo sapiens) (UniProt Q5R387+Q9NZK7+P14555+Q9BZM2+Q9UNK4+P39877+O15496+P04054+Q9NZ20+Q9BZM1+Q9BX93); assay: Inhibition of sPLA2 in human plasma using 1-Hexadecanoyl-2-(1-pyrenedecanoyl)-sn-glycero-3-phosphomethanol as substrate preincubated for 10 mins followed by substrate addition measured after 90 mins by fluorescence assay; assay type: cell-free
[3] = Inhibition of recombinant sPLA2-5 (unknown origin) using 1-palmitoyl-2-oleoyl-sn-glycero-3-phosphocholine as substrate preincubated for 10 mins followed by substrate addition measured after 60 mins by colorimetric method; set-up: species or system Homo sapiens
[4] = molecular target: T3, Phospholipase A2, membrane associated (Homo sapiens, UniProt P14555); assay: (§1) Inhibition of recombinant sPLA2-2A (unknown origin) using 1-palmitoyl-2-oleoyl-sn-glycero-3-phosphocholine as substrate preincubated for 10 mins followed by substrate addition measured after 60 mins by colorimetric method
T3 sequence (P14555 whole entry): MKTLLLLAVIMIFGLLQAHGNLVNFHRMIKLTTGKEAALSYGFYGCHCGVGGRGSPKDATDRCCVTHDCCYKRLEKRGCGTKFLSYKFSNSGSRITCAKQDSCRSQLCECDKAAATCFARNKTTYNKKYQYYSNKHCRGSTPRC

[5] = Oral bioavailability in beagle dog at 2 umol/kg; assay type: ADME, organism-based, Canis lupus familiaris; settings: in vivo
Cytochrome P450 3A4 = Cytochrome P450 3A4 (Homo sapiens, UniProt P08684); assay: Inhibition of human recombinant CYP3A4; assay type: ADME
Chain of Cytochrome P450 3A4 (P08684 whole entry): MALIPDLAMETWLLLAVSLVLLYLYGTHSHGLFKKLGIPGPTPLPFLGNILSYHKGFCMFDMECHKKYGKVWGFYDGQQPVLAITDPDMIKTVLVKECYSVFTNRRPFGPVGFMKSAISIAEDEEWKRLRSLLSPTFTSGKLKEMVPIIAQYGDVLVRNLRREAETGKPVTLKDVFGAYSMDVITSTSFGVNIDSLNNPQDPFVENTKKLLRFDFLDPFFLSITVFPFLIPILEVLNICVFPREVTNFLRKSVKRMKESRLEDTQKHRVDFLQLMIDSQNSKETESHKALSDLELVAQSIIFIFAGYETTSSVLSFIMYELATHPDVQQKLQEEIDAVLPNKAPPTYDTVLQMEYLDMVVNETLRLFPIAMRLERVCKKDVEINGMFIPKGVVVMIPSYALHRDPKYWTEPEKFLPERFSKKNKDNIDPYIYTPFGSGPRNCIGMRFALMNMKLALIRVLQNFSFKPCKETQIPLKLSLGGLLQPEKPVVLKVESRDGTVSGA

Cytochrome P450 2C9 = Cytochrome P450 2C9 (Homo sapiens, UniProt P11712); assay: Inhibition of human recombinant CYP2C9; assay type: ADME
[6] = molecular target: Voltage-gated inwardly rectifying potassium channel KCNH2 (Homo sapiens, UniProt Q12809); assay: Inhibition of human ERG expressed in CHO cells by patch clamp assay; assay type: cell-based
Cytochrome P450 2C8 = Cytochrome P450 2C8 (Homo sapiens, UniProt P10632); assay: Inhibition of human recombinant CYP2C8; assay type: ADME
Chain of Cytochrome P450 2C8 (P10632 whole entry): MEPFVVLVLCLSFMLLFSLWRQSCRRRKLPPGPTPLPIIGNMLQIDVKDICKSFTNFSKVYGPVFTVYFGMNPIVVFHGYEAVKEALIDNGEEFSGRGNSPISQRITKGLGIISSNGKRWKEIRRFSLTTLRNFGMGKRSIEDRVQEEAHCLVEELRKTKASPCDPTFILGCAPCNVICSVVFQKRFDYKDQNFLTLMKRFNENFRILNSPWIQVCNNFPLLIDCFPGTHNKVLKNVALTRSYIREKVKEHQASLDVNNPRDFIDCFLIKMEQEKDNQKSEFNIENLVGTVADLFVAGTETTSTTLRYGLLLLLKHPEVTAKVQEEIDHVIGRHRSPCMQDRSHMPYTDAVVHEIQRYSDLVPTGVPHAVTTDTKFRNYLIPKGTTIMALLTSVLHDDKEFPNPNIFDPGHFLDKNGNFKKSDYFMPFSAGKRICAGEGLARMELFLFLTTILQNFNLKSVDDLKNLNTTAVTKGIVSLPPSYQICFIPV

Cytochrome P450 2C19 = Cytochrome P450 2C19 (Homo sapiens, UniProt P33261); assay: Inhibition of human recombinant CYP2C19; assay type: ADME
[7] = Volume of distribution at steady state in beagle dog at 1 umol/kg, iv or 2 umol/kg, po; assay type: ADME, organism-based, Canis lupus familiaris; settings: in vivo
[8] = molecular target: Voltage-dependent T-type calcium channel subunit alpha-1H (Homo sapiens, UniProt O95180); assay: Inhibition of human Cav3.2 expressed in CHO cells by patch clamp assay; assay type: cell-based
[9] = Oral bioavailability in Sprague-Dawley rat at 4 umol/kg; assay type: ADME, organism-based; settings: in vivo
[10] = Intrinsic clearance in human hepatocytes at 1 uM assessed per million cells measured up to 60 mins; assay type: ADME, cell-based, Hepatocyte; settings: 1 h
[11] = molecular target: Sodium channel protein type 5 subunit alpha (Homo sapiens, UniProt Q14524); assay: Inhibition of human Nav1.5 expressed in CHO cells by patch clamp assay; assay type: cell-based
[12] = Solubility of compound in pH 7.4 DMSO/HBSS after 24 hrs by LC-UV/MS analysis; assay type: physicochemical
[13] = Apparent permeability from apical to basolateral side in human Caco2 cells at pH 6.5; assay type: ADME, cell-based; settings: caco-2, pH 6.5
Cytochrome P450 2D6 = Cytochrome P450 2D6 (Homo sapiens, UniProt P10635); assay: Inhibition of human recombinant CYP2D6; assay type: ADME
Chain of Cytochrome P450 2D6 (P10635 whole entry): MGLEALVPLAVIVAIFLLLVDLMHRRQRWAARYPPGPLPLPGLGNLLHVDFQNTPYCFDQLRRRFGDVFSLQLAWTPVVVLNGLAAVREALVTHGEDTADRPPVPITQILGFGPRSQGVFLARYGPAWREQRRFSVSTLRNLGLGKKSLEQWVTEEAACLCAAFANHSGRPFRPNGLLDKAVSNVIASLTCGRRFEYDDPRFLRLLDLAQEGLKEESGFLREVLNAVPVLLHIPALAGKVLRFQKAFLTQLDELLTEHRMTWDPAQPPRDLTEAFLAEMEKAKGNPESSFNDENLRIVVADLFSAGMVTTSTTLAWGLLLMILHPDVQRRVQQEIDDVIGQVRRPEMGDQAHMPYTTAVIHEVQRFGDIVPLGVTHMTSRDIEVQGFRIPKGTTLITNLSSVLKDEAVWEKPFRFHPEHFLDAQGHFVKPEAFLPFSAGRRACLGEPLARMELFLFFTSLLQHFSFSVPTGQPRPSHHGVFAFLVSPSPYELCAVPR

[14] = molecular target: A-type voltage-gated potassium channel KCND3 (Homo sapiens, UniProt Q9UK17); assay: Inhibition of human Kv4.3 expressed in CHO cells by patch clamp assay; assay type: cell-based
Cytochrome P450 1A2 = Cytochrome P450 1A2 (Homo sapiens, UniProt P05177); assay: Inhibition of human recombinant CYP1A2; assay type: ADME
Chain of Cytochrome P450 1A2 (P05177 whole entry): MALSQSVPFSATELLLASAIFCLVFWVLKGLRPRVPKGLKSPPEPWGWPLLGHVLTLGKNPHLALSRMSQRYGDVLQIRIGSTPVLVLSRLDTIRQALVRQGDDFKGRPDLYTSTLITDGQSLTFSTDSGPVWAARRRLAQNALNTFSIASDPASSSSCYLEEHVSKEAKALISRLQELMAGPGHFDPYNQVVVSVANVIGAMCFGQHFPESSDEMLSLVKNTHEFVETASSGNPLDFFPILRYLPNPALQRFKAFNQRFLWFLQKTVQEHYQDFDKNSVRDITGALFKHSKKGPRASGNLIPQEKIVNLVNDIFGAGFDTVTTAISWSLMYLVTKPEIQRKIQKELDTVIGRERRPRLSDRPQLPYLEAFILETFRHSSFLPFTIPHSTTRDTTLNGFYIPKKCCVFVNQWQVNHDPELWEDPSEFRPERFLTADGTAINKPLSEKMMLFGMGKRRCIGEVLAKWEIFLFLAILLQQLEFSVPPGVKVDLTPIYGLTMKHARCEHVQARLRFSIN

[15] = molecular target: Voltage-dependent L-type calcium channel subunit alpha-1C (Homo sapiens, UniProt Q13936); assay: Inhibition of human Cav1.2 expressed in CHO cells by patch clamp assay; assay type: cell-based
Chain of Voltage-dependent L-type calcium channel subunit alpha-1C (Q13936 whole entry): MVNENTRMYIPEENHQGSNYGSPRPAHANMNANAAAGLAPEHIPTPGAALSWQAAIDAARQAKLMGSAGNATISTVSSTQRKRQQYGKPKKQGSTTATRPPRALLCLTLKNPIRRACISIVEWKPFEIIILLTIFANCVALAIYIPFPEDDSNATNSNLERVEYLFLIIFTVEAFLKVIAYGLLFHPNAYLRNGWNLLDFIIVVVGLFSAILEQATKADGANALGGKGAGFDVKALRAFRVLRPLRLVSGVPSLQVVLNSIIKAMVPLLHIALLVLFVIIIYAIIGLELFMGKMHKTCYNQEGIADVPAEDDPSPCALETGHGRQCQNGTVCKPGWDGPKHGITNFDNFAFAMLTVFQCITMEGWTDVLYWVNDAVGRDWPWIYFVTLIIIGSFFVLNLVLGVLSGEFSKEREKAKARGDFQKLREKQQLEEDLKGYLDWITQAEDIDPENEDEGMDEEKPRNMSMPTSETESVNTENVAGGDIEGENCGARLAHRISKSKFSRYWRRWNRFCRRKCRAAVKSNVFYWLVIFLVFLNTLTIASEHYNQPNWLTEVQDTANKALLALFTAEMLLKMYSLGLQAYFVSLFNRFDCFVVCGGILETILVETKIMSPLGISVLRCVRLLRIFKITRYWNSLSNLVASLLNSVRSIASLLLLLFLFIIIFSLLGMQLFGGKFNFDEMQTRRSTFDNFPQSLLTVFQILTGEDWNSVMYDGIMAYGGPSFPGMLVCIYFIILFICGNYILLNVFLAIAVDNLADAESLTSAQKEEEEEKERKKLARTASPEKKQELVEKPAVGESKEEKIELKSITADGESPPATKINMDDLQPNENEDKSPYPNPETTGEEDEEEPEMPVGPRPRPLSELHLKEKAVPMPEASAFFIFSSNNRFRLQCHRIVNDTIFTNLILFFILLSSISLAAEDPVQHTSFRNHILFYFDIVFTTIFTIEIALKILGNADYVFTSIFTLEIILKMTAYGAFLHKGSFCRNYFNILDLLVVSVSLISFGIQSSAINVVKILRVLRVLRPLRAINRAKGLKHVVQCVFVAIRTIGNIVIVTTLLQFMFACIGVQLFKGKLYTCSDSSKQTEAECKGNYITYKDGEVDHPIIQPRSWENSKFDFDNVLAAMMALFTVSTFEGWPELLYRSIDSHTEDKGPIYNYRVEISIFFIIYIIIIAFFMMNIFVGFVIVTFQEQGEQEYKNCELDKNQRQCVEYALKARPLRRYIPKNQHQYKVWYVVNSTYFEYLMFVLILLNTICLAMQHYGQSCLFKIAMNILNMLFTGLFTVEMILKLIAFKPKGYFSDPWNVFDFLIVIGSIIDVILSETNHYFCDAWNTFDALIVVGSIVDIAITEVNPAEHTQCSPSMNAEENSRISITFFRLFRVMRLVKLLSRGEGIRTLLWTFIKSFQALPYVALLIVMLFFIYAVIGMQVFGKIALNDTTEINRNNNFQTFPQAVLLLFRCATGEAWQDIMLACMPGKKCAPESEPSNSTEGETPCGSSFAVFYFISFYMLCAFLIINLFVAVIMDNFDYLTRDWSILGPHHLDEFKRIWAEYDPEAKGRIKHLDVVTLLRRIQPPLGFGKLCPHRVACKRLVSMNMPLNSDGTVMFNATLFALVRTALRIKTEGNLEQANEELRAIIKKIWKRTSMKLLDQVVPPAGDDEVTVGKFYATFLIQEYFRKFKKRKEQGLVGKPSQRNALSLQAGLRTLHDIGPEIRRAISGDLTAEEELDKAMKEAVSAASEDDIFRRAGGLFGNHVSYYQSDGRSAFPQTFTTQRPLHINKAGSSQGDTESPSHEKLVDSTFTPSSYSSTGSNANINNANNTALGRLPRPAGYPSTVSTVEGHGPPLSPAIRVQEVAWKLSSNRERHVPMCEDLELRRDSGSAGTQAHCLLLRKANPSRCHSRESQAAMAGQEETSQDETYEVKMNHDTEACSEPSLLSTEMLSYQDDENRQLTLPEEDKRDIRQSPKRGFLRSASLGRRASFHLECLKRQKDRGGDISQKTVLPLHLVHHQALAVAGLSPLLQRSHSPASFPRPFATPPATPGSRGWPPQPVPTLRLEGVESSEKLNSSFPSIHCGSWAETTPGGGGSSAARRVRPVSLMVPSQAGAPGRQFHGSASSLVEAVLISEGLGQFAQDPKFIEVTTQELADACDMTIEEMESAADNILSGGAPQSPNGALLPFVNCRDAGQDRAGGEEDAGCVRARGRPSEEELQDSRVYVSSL

[16] = Volume of distribution at steady state in Sprague-Dawley rat at 2 umol/kg, iv or 4 umol/kg, po; assay type: ADME, organism-based; settings: in vivo
[17] = Inhibition of human IKs channel expressed in CHO cells by patch clamp assay; assay type: cell-based
Homo sapiens = species on record: Homo sapiens; assay: Inhibition of recombinant sPLA2-5 (unknown origin) at 25 uM using 1-palmitoyl-2-oleoyl-sn-glycero-3-phosphocholine as substrate preincubated for 10 mins followed by substrate addition measured after 60 mins by colorimetric method
[18] = Unbound fraction in human plasma; assay type: ADME, cell-free
[19] = molecular target: Phospholipase A2, membrane associated (Homo sapiens) (UniProt P14555); assay: as §1
[20] = molecular target: T2, Secretory phospholipase A2 (Homo sapiens); assay: Inhibition of sPLA2 in human plasma at 25 uM using 1-Hexadecanoyl-2-(1-pyrenedecanoyl)-sn-glycero-3-phosphomethanol as substrate preincubated for 10 mins followed by substrate addition measured after 90 mins by fluorescence assay; assay type: cell-free
[21] = AUC (0 to infinity) in beagle dog at 3 umol/kg, po; assay type: ADME, Canis lupus familiaris; set-up: dose 3 umol/kg, route oral, time infinity; settings: in vivo
[22] = Volume of distribution at steady state in beagle dog at 1 umol/kg, iv or 3 umol/kg, po; assay type: ADME, organism-based, Canis lupus familiaris; settings: in vivo
[23] = Oral bioavailability in mouse at 50 umol/kg; assay type: ADME, organism-based; settings: in vivo
[24] = Oral bioavailability in beagle dog at 3 umol/kg; assay type: ADME, organism-based, Canis lupus familiaris; settings: in vivo
[25] = molecular target: Secretory phospholipase A2; assay: Inhibition of sPLA2 in atherosclerotic plaque from coronary artery disease patient; assay type: protein assay, Homo sapiens
[26] = AUC (0 to infinity) in Sprague-Dawley rat at 8 umol/kg, po; assay type: ADME; set-up: dose 8 umol/kg, time infinity, route oral; settings: in vivo
[27] = Volume of distribution at steady state in mouse at 10 umol/kg, iv or 50 umol/kg, po; assay type: ADME, organism-based; settings: in vivo
Macaca fascicularis = species on record: Macaca fascicularis; assay: Inhibition of sPLA2 in cynomolgus monkey plasma using 1-Hexadecanoyl-2-(1-pyrenedecanoyl)-sn-glycero-3-phosphomethanol as substrate preincubated for 10 mins followed by substrate addition measured after 90 mins by fluorescence assay; assay type: cell-free
[28] = Volume of distribution at steady state in cynomolgus monkey at 5 umol/kg, iv or 15.8 umol/kg, po; assay type: ADME, organism-based, Macaca fascicularis; settings: in vivo
[29] = AUC (0 to infinity) in cynomolgus monkey at 15.8 umol/kg, po; assay type: ADME, Macaca fascicularis; set-up: dose 15.8 umol/kg, route oral, time infinity; settings: in vivo
Cynomolgus monkey = assay: In vivo inhibition of sPLA2 in po dosed cynomolgus monkey plasma measured up to 24 hrs; assay type: functional, Macaca fascicularis
HepG2 = assay: Inhibition of sPLA2-2A production in human HepG2 cells; assay type: functional, cell-based
[30] = Oral bioavailability in Sprague-Dawley rat at 8 umol/kg; assay type: ADME, organism-based; settings: in vivo
[31] = AUC (0 to infinity) in mouse at 50 umol/kg, po; assay type: ADME; set-up: dose 50 umol/kg, route oral, time infinity; settings: in vivo
[32] = Oral bioavailability in cynomolgus monkey at 15.8 umol/kg; assay type: ADME, organism-based, Macaca fascicularis; settings: in vivo
[33] = Volume of distribution at steady state in Sprague-Dawley rat at 2 umol/kg, iv or 8 umol/kg, po; assay type: ADME, organism-based; settings: in vivo
[34] = molecular target: Solute carrier organic anion transporter family member 1B1 (Homo sapiens, UniProt Q9Y6L6); assay: Inhibition of human OATP1B1 expressed in HEK293 cells assessed as reduction in […] uptake at 25 uM; assay type: cell-based; settings: hek293, 25 µM
Chain of Solute carrier organic anion transporter family member 1B1 (Q9Y6L6 whole entry): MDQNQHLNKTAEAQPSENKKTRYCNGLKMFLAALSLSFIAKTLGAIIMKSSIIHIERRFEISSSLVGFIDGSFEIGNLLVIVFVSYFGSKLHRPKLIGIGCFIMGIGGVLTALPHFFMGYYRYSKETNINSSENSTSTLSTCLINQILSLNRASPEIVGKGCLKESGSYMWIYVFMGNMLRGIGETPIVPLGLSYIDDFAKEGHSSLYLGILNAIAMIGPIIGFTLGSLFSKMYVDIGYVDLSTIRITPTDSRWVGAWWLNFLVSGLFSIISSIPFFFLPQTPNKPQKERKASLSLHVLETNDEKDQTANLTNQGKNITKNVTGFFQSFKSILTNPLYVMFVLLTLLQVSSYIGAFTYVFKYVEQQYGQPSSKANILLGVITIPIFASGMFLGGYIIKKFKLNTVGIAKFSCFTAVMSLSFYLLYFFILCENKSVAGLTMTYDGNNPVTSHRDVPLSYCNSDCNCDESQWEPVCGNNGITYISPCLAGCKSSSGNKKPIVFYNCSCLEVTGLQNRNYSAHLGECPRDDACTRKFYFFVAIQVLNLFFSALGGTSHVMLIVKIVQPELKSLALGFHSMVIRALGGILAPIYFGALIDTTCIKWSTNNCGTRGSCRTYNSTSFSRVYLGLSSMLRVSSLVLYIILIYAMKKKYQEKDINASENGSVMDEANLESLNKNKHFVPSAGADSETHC

[35] = molecular target: Secretory phospholipase A2; assay: Inhibition of sPLA2 in human HepG2 cells; assay type: cell-based

NC(=O)c1ccc(Cc2ccccc2)cc1-c1cccc(CC(=O)O)c1
IC50 [1]: 1100 nM | fIC50 [2]: 0.04 µM | IC50 [3]: 1400 nM | IC50 [4]: 70 nM

NC(=O)c1ccc(Cc2ccccc2)cc1-c1cccc(CCC(=O)O)c1
F [5]: 82% | IC50 [1]: 280 nM | IC50 (Cytochrome P450 3A4): > 20000 nM | IC50 (Cytochrome P450 2C9): > 20000 nM | IC50 [6]: > 33300 nM | IC50 (Cytochrome P450 2C8): > 20000 nM | fIC50 [2]: 0.007 µM | IC50 (Cytochrome P450 2C19): > 20000 nM | Vdss [7]: 0.26 L/kg | IC50 [8]: > 33300 nM | F [9]: 81% | IC50 [3]: 360 nM | CLint [10]: 5.2 µL/min/1e6 cells | IC50 [11]: > 33300 nM | solubility kinetic at 24 h [12]: 98 µM (≈ 35.2 µg/mL) | IC50 [4]: 12 nM | Papp [13]: 40.1 ×10⁻⁶ cm/s | IC50 (Cytochrome P450 2D6): > 20000 nM | IC50 [14]: > 33300 nM | IC50 (Cytochrome P450 1A2): > 20000 nM | IC50 [15]: > 33300 nM | Vdss [16]: 0.22 L/kg | IC50 [17]: > 33300 nM

NC(=O)c1ccc(Cc2ccccc2)cc1
inhibition (Homo sapiens): inactive | Fu [18]: 1.8% | IC50 [1]: 2200 nM | fIC50 [2]: 0.9 µM | inhibition [19]: Dose-dependent effect | IC50 [4]: 24000 nM

NC(=O)c1ccc(Cc2ccccc2)cc1-c1cccc(C(=O)O)c1
inhibition [20]: inactive | IC50 [3]: > 10000 nM | IC50 [4]: 910 nM

NC(=O)c1ccc(Cc2ccccc2)cc1-c1cccc(CCCC(=O)O)c1
IC50 [1]: 5400 nM | fIC50 [2]: 0.03 µM | IC50 [3]: 4100 nM | IC50 [4]: 110 nM

NC(=O)c1ccc(Cc2ccccc2)cc1-c1cccc(OCC(=O)O)c1
IC50 [1]: 3700 nM | IC50 [4]: 190 nM

CCc1c(C(=O)C(N)=O)c2c(OCC(=O)O)cccc2n1Cc1ccccc1 [VARESPLADIB]
Fu [18]: 12.5% | fIC50 [2]: 0.008 µM | IC50 [3]: 120 nM

C[C@@H](Cc1cccc(-c2cc(Cc3ccccc3)ccc2C(N)=O)c1)C(=O)O
IC50 [1]: 3800 nM | IC50 [3]: 1200 nM | CLint [10]: 9.3 µL/min/1e6 cells | IC50 [4]: 38 nM

CCC(Cc1cccc(-c2cc(Cc3ccccc3)ccc2C(N)=O)c1)C(=O)O (centres undefined)
IC50 [1]: 430 nM | fIC50 [2]: 0.0008 µM | IC50 [3]: 70 nM | CLint [10]: 25 µL/min/1e6 cells | IC50 [4]: 21 nM

C[C@H](Cc1cccc(-c2cc(Cc3ccccc3)ccc2C(N)=O)c1)C(=O)O
AUC(0-inf) [21]: 284 µM·h | Vdss [22]: 0.15 L/kg | IC50 [1]: 400 nM | F [23]: 76.3% | F [24]: 91% | IC50 [25]: 56 nM | AUC(0-inf) [26]: 70 µM·h | fIC50 [2]: 0.0001 µM | Vdss [27]: 2.8 L/kg | fIC50 (Macaca fascicularis): 1 nM | Vdss [28]: 1.1 L/kg | AUC(0-inf) [29]: 71.3 µM·h | fIC80 (Cynomolgus monkey): 13 nM | inhibition (Cynomolgus monkey; Macaca fascicularis): Dose-dependent effect | IC50 (HepG2): 176 nM | IC50 [3]: 40 nM | CLint [10]: 12 µL/min/1e6 cells | F [30]: 84% | AUC(0-inf) [31]: 69.7 µM·h | F [32]: 81% | Vdss [33]: 0.21 L/kg | inhibition (INH) [34]: Not Active | IC50 [4]: 10 nM | IC50 [35]: < 14 nM

CC(Cc1cccc(-c2cc(Cc3ccccc3)ccc2C(N)=O)c1)C(=O)O (centres undefined)
IC50 [1]: 750 nM | fIC50 [2]: 0.001 µM | IC50 [3]: 70 nM | CLint [10]: 9.6 µL/min/1e6 cells | inhibition (INH) [34]: Not Active | IC50 [4]: 11 nM
